Test results taken from US7906656B2, “Iodopyrazolyl carboxanilides” (Bayer CropScience AG, priority 2003, dated 2011).

Key:
Assay type in all cases: in vivo
[1] = system: Alternaria solani; assay: Alternaria test (tomato)/protective; conditions: protective, application rate 750 g/ha, evaluation 7 days after inoculation
Procedure: To produce a suitable preparation of active compound, 1 part by weight of active compound is mixed with the stated amounts of solvent and emulsifier, and the concentrate is diluted with water to the desired concentration. To test for protective activity, young tomato plants are sprayed with the preparation of active compound at the stated application rate. 1 day after the treatment, the plants are inoculated with a spore suspension of Alternaria solani and are then allowed to stand at 100% relative atmospheric humidity and 20° C. for 24 h. The plants are then allowed to stand at 96% relative atmospheric humidity and a temperature of 20° C. The evaluation is carried out 7 days after the inoculation. 0% means an efficacy which corresponds to that of the control, whereas an efficacy of 100% means that no infection is observed.

[2] = system: Puccinia recondita; assay: Puccinia test (wheat)/protective; conditions: 240 h, protective, application rate 500 g/ha, evaluation 10 days after inoculation, read-out: Efficacy in %
Procedure: (§1) To produce a suitable preparation of active compound, 1 part by weight of active compound is mixed with the stated amounts of solvent and emulsifier, and the concentrate is diluted with water to the desired concentration. To test for protective activity, young plants are sprayed with the preparation of active compound at the stated application rate. After the spray coating has dried on, the plants are sprayed with a conidia suspension of Puccinia recondita. The plants remain in an incubation cabin at 20° C. and 100% relative atmospheric humidity for 48 hours. The plants are then placed in a greenhouse at a temperature of about 20° C. and a relative atmospheric humidity of 80% to promote the development of rust pustules. Evaluation is carried out 10 days after the inoculation. 0% means an efficacy which corresponds to that of the control, whereas an efficacy of 100% means that no infection is observed.

[3] = system: Pyrenophora teres; assay: Pyrenophora teres test (barley)/protective; conditions: 192 h, protective, application rate 500 g/ha, evaluation 8 days after inoculation, read-out: Efficacy in %
Procedure: as §1, with “of Pyrenophora teres.” for “of Puccinia recondita.”, “of about 80%.” for “of 80% to promote the development of rust pustules.”, “out 8” for “out 10”

[4] = system: Botrytis cinerea; assay: Botrytis test (bean)/protective; conditions: 48 h, protective, evaluation 2 days after inoculation, read-out: Efficacy in %; for pest or weed control at 100 g/ha: application rate 100 g/ha; for pest or weed control at 500 g/ha: application rate 500 g/ha
Procedure: To produce a suitable preparation of active compound, 1 part by weight of active compound is mixed with the stated amounts of solvents and emulsifier, and the concentrate is diluted with water to the desired concentration. To test for protective activity, young plants are sprayed with the preparation of active compound at the stated application rate. After the spray coating has dried on, 2 small pieces of agar colonized with Botrytis cinerea are placed onto each leaf. The inoculated plants are placed in a darkened chamber at about 20° C. and 100% relative atmospheric humidity. 2 days after the inoculation, the size of the infected areas on the leaves is evaluated. 0% means an efficacy which corresponds to that of the control, whereas an efficacy of 100% means that no infection is observed.

Cn1cc(C(=O)Nc2ccccc2-c2ccc(F)c(Cl)c2)c(I)n1 [drawing 127] was tested, and the Efficacy in % [1] was 100%.

With CC(C)CC(C)c1ccccc1NC(=O)c1cn(C)nc1I (centres unmarked) [drawing 112] the pest or weed control at 500 g/ha [2] was 100%.

Cn1cc(C(=O)Nc2ccccc2-c2ccc(C(F)(F)F)c(F)c2)c(I)n1 [drawing 119] was tested, and the pest or weed control at 500 g/ha [2] was 100%.

For CC1CC(C)(C)c2cccc(NC(=O)c3cn(C)nc3I)c21 (centres unmarked) [drawing 123], the pest or weed control at 500 g/ha [2] was 100%.

Compound Cn1cc(C(=O)Nc2ccccc2-c2ccc(I)cc2)c(I)n1 [drawing 104] has a pest or weed control at 500 g/ha [3] of 100%.

CC(C)CCc1ccccc1NC(=O)c1cn(C)nc1I [drawing 98] gave a pest or weed control at 100 g/ha [4] of 98%.

Compound CC(C)CC(C)c1cc(F)ccc1NC(=O)c1cn(C)nc1I (centres unmarked) [drawing 100] has a pest or weed control at 100 g/ha [4] of 100%.

In the case of CC(CC(C)(C)C)c1ccccc1NC(=O)c1cn(C)nc1I (centres unmarked) [drawing 85], the pest or weed control at 500 g/ha [4] is reported as 100%.

With Cn1cc(C(=O)Nc2ccccc2-c2ccc(I)cc2)c(I)n1 [drawing 125] the Efficacy in % [1] was 100%.

For Cn1cc(C(=O)Nc2ccccc2-c2ccc(C(F)(F)F)cc2)c(I)n1 [drawing 94], the pest or weed control at 500 g/ha [4] was 94%.

With Cn1cc(C(=O)Nc2ccccc2-c2ccc(Cl)c(Cl)c2)c(I)n1 [drawing 115] the pest or weed control at 500 g/ha [2] was 100%.

CC(C)CC(C)c1ccccc1NC(=O)c1cn(C)nc1I (centres unmarked) [drawing 102] was tested, and the pest or weed control at 500 g/ha [3] was 100%.

CC(=O)N(C(=O)c1cn(C)nc1I)c1ccccc1C(C)CC(C)C (centres unmarked) [drawing 120] gave a pest or weed control at 500 g/ha [2] of 100%.

Cn1cc(C(=O)Nc2ccccc2-c2ccc(Cl)c(Cl)c2)c(I)n1 [drawing 87] showed a pest or weed control at 500 g/ha [4] of 100%.

Cn1cc(C(=O)Nc2ccccc2-c2ccc(C(F)(F)F)c(F)c2)c(I)n1 [drawing 95] gave a pest or weed control at 500 g/ha [4] of 100%.

Cn1cc(C(=O)Nc2ccccc2-c2ccc(F)c(Cl)c2)c(I)n1 [drawing 106] showed a pest or weed control at 500 g/ha [3] of 100%.

In the case of CC(CC(C)(C)C)c1ccccc1NC(=O)c1cn(C)nc1I (centres unmarked) [drawing 101], the pest or weed control at 500 g/ha [3] is reported as 93%.

Work on Cn1cc(C(=O)Nc2ccccc2-c2ccc(Cl)c(F)c2)c(I)n1 [drawing 103] yielded a pest or weed control at 500 g/ha [3] of 100%.

Work on Cn1cc(C(=O)Nc2ccccc2-c2ccc(Br)cc2)c(I)n1 [drawing 90] yielded a pest or weed control at 500 g/ha [4] of 100%.

For Cn1cc(C(=O)Nc2ccccc2-c2ccc(F)c(Cl)c2)c(I)n1 [drawing 117], the pest or weed control at 500 g/ha [2] was 100%.

Cn1cc(C(=O)Nc2ccccc2-c2ccc(F)c(Cl)c2)c(I)n1 [drawing 89] gave a pest or weed control at 500 g/ha [4] of 100%.

With Cn1cc(C(=O)Nc2ccccc2-c2ccc(Cl)cc2)c(I)n1 [drawing 116] the pest or weed control at 500 g/ha [2] was 100%.

Cn1cc(C(=O)Nc2ccccc2-c2ccc(Br)cc2)c(I)n1 [drawing 118] was tested, and the pest or weed control at 500 g/ha [2] was 100%.

Cn1cc(C(=O)Nc2ccccc2-c2ccc(Br)cc2)c(I)n1 [drawing 107] was tested, and the pest or weed control at 500 g/ha [3] was 100%.

Cn1cc(C(=O)Nc2ccc(F)cc2-c2ccc(Cl)c(Cl)c2)c(I)n1 [drawing 126] showed an Efficacy in % [1] of 100%.

Cn1cc(C(=O)Nc2ccccc2-c2ccc(Cl)c(F)c2)c(I)n1 [drawing 91] gave a pest or weed control at 500 g/ha [4] of 100%.

For Cn1cc(C(=O)Nc2ccccc2-c2ccc(Cl)c(F)c2)c(I)n1 [drawing 113], the pest or weed control at 500 g/ha [2] was 100%.

For CC1CC(C)(C)c2cccc(NC(=O)c3cn(C)nc3I)c21 (centres unmarked) [drawing 99], the pest or weed control at 100 g/ha [4] was 100%.

Work on C=C(CC(C)(C)C)c1ccccc1NC(=O)c1cn(C)nc1I [drawing 124] yielded a pest or weed control at 500 g/ha [2] of 100%.

For Cn1cc(C(=O)Nc2ccccc2-c2ccc(I)cc2)c(I)n1 [drawing 114], the pest or weed control at 500 g/ha [2] was 100%.

CC(C)CCc1ccccc1NC(=O)c1cn(C)nc1I [drawing 122] was tested, and the pest or weed control at 500 g/ha [2] was 100%.

With Cn1cc(C(=O)Nc2ccccc2-c2ccc(I)cc2)c(I)n1 [drawing 97] the pest or weed control at 100 g/ha [4] was 100%.

For Cn1cc(C(=O)Nc2ccccc2-c2ccc(Cl)cc2)c(I)n1 [drawing 96], the pest or weed control at 100 g/ha [4] was 100%.

CC(C)CC(C)c1cc(F)ccc1NC(=O)c1cn(C)nc1I (centres unmarked) [drawing 110] gave a pest or weed control at 500 g/ha [3] of 100%.

In the case of Cc1ccc(-c2ccccc2NC(=O)c2cn(C)nc2I)cc1F [drawing 93], the pest or weed control at 500 g/ha [4] is reported as 100%.

Compound CC(CC(C)(C)C)c1ccccc1NC(=O)c1cn(C)nc1I (centres unmarked) [drawing 111] has a pest or weed control at 500 g/ha [2] of 100%.

Cn1cc(C(=O)Nc2ccc(F)cc2-c2ccc(Cl)c(Cl)c2)c(I)n1 [drawing 88] was tested, and the pest or weed control at 100 g/ha [4] was 100%.

CC(=O)N(C(=O)c1cn(C)nc1I)c1ccccc1C(C)CC(C)C (centres unmarked) [drawing 109] was tested, and the pest or weed control at 500 g/ha [3] was 100%.

Cn1cc(C(=O)Nc2ccccc2-c2ccc(Cl)cc2)c(I)n1 [drawing 105] gave a pest or weed control at 500 g/ha [3] of 100%.

Cn1cc(C(=O)Nc2ccccc2-c2ccc(C(F)(F)F)c(F)c2)c(I)n1 [drawing 108] was tested, and the pest or weed control at 500 g/ha [3] was 100%.

For CC(C)CC(C)c1cc(F)ccc1NC(=O)c1cn(C)nc1I (centres unmarked) [drawing 121], the pest or weed control at 500 g/ha [2] was 100%.
